Our source for the AC50 values is PubChem BioAssay AID743267 (Broad Institute, 2014).

As a reminder, the AC50 is the concentration at which the activity in the assay is half-maximal. Lower therefore signals greater potency.

In the test the test system is human bronchial epithelial cells, CFTR corrector, plate reader. As to the kind of experiment: rescue of ΔF508 CFTR function, airway epithelium – human bronchial epithelial cells, plate reader, cherry-pick, two tests, dose response (AID 743267).
The mark [1] stands for this setting: measured here: test 2 replicate run.
The mark [2] stands for this setting: measured here: test 1 replicate run.

SMILES strings stand for the structures.

For the molecule `Fc1ccccc1/C=N/NC(=S)Nc1ccc(Cl)cc1Cl`, the AC50 under setting [1] turned out to be 1.62 µM.

For `COc1cc(OC)cc(-c2cc3ccc(OC)cc3cn2)c1`, the AC50 under setting [1] turned out to be 43.6 µM. This AC50 is about 27-fold higher than that of the molecule before. `Cc1ccc(/C=N/NC(=O)C2COc3ccccc3O2)s1` (configuration not stated): the AC50 under setting [1] came out at 7.28 µM. Take `C/C(=N\Nc1ncnc2sc(C)c(C)c12)c1ccccn1`: the half-maximal activity concentration (AC50) under setting [1] was 0.589 µM. Turning to `COc1cc(OC)cc(C(=O)N2CC(=O)Nc3ccccc32)c1`, the half-maximal activity concentration (AC50) under setting [1] stood at 2.1 µM. This AC50 is about 3.6-fold higher than that of the molecule before.

In the case of `COC(=O)c1ccc(C(=O)NC2CCCc3c2cnn3-c2ccc(C)c(C)c2)cc1` (configuration not stated), the AC50 under setting [1] stood at 1.02 µM.

Take `COc1cc(/C=C(\C#N)c2nc3ccccc3[nH]2)cc(OC)c1O`: the AC50 under setting [1] stood at 7.88 µM. As for `O=C(CCC(=O)N1CCOc2ccc(Cl)cc21)N1CCN(c2ccccn2)CC1`, the AC50 under setting [1] was more than 50 µM. For the molecule `CCN(CC)CCn1c2ccccc2c2nc3ccccc3nc21`, under setting [1], the AC50 was 11.3 µM. On to `Cc1ncc(CO)c(/C=N/Nc2ccc(C(F)(F)F)cn2)c1O`, for which the AC50 under setting [1] came out at 1.18 µM. `NC(=O)N=Nc1c2[nH]c3ccccc3nc-2c2ccccc12` returned an AC50 under setting [1] of 8.41 µM. In the case of `COC(=O)CSC1=C(C#N)C(c2ccc(C)o2)CC(=O)N1` (configuration not stated), the AC50 under setting [1] was found to be 8.06 µM. For the molecule `C=CC(C)(C)c1[nH]cnc1/C=C1\NC(=O)C(C(C)C)NC1=O` (configuration not stated), the AC50 under setting [1] came to 40.2 µM. Under setting [1], `NS(=O)(=O)c1ccc(CNc2ccc3ccccc3n2)cc1` yielded an AC50 of more than 50 µM. `O=C(CSC1=NNC(c2ccccn2)S1)Nc1ccccc1` (configuration not stated) yielded an AC50 under setting [1] of more than 50 µM. On to `Cc1ccnc2c1ccc1cccnc12`, for which the AC50 under setting [1] came out at 18.3 µM. Consider `C[C@H](CO)N1C[C@H](C)[C@H](CN(C)C(=O)NC2CCCCC2)Oc2cc(C#Cc3ccc(F)cc3)ccc2S1(=O)=O`, for which, under setting [2], the AC50 is 7.62 µM. Molecule `COc1cc(C(=O)Nc2ccccc2C(=O)Nc2ccccn2)cc(OC)c1OC` showed an AC50 under setting [1] of 4.59 µM. Same read-out and setting: in the case of `CCN(CC)CCCNc1ccc2ncn3c4ccc(O)cc4c(=O)c1c23` it was 1.8 µM; in that of `COc1cccc(/C=N/NC(=O)C(=O)Nc2ccccc2OC(F)(F)C(F)F)c1O`, 9.39 µM. `O=C(NCCCN1CCOCC1)c1cc(S(=O)(=O)N2CCOCC2)c(Cl)cc1Cl` displayed an AC50 under setting [1] of more than 50 µM. In the case of `c1ccc2c(c1)C1=NCCN1c1ccccc1-2`, the AC50 under setting [1] stood at 2.93 µM. This counts as single-digit micromolar. Take `O=C(C1CCCC1)N1CC(=O)N2[C@H](CO)[C@@H](c3ccc(-c4ccccc4F)cc3)[C@@H]2C1`: the AC50 under setting [2] came out at 4.47 µM. This counts as single-digit micromolar. In the case of `N#C/C(=C\c1ccccn1)c1nc2ccccc2s1`, under setting [1], the AC50 is 24.2 µM. Under setting [1], `c1ccc(CCN(Cc2ccccc2)Cc2nc(C3CC3)no2)cc1` displayed an AC50 of 24.9 µM. In turn, `N#Cc1c(-c2ccc(F)cc2)c(-c2ccc(F)cc2)nn(CCO)c1=O` showed an AC50 under setting [1] of 2.57 µM. The molecule `COc1cccc(/C=N/NC(=O)C(=O)N/N=C/c2cccc(OC)c2O)c1O` yielded an AC50 under setting [1] of 40.1 µM. In the case of `Cc1ccc(-c2csc(Nc3ccccn3)n2)cc1`, the AC50 under setting [1] stood at 26.4 µM. This AC50 is about 1.5-fold lower than that of the molecule before. In turn, `CCCCn1c(CN2CCN(c3cccc(Cl)c3)CC2)nc2c1c(=O)[nH]c(=O)n2C` came in with a concentration at half-maximal activity (AC50) under setting [1] of 4.31 µM.

The molecule `O=C(Cc1ccccc1)N1CC(=O)N2[C@H](CO)[C@@H](c3ccc(-c4ccccc4)cc3)[C@@H]2C1` returned an AC50 under setting [2] of 24.6 µM. This counts as double-digit micromolar. For `COc1cc(SC)ccc1C(=O)N1CCN(c2ccccc2OC)CC1`, under setting [1], the half-maximal activity concentration (AC50) was found to be 6.62 µM. That is a single-digit micromolar value. Regarding `COc1cc([C@@H]2c3cc4c(cc3[C@@H](OC)[C@H]3COC(=O)[C@H]23)OCO4)cc(OC)c1O`, the AC50 under setting [1] was found to be 2.52 µM. In turn, `COC(=O)C[C@@H]1CC[C@@H]2[C@H](COc3ccc(NC(=O)c4cc(C)on4)cc3C(=O)N2C)O1` registered an AC50 under setting [2] of 3.67 µM. This lies in the single-digit micromolar range. In turn, `COc1ccc(C)cc1Nc1c2c(nc3ccccc13)CCC2` showed a concentration at half-maximal activity (AC50) under setting [1] of 0.708 µM. This counts as sub-micromolar. For `CCOC(=O)N1CCN(S(=O)(=O)c2ccc3c(c2)C(C)C(=O)N3)CC1` (configuration not stated), under setting [1], the AC50 was more than 50 µM. On the same count and under the same terms, the same measure for `COC(=O)c1cc2c(=O)c3ccccc3oc2nc1/C=C/N(C)C`: 0.984 µM; for `CC(=O)NC(c1ccc(Cl)cc1Cl)c1ccc2cccnc2c1O` (configuration not stated): 2.63 µM. Molecule `CC(=O)O[C@H]1C(=O)[C@@]2(C)C([C@H](OC(=O)c3ccccc3)[C@]3(O)C[C@H](OC(=O)[C@H](O)[C@@H](NC(=O)c4ccccc4)c4ccccc4)C(C)=C1C3(C)C)[C@]1(OC(C)=O)CO[C@@H]1C[C@H]2O` (some centres not stated) returned an AC50 under setting [1] of 5.6 µM. On the same count and under the same terms, the same measure for `Cc1noc(C)c1COc1ccc(C(=O)NNC(=O)c2ccccc2)cc1`: 6.4 µM. Turning to `O=C(N/N=C/c1cccs1)c1cccc(NC(=O)c2ccccc2Cl)c1`, the AC50 under setting [1] stood at 0.985 µM. Molecule `CCCC(=O)Nc1ccc2c(c1)nc(CN1CCN(C(=O)OCC)CC1)n2CC` returned an AC50 under setting [1] of 8.58 µM. Against the preceding molecule, the AC50 is about 8.7-fold higher. In turn, `CC(C)CN(CCCNC(=O)CN1C(=O)CSc2ccc(S(=O)(=O)N3CCOCC3)cc21)CC(C)C` returned an AC50 under setting [1] of more than 50 µM. With `O=C(CN1C(=O)NC2(CCCCCCC2)C1=O)Nc1ccc(Br)cc1`, the half-maximal activity concentration (AC50) under setting [1] came to 1.13 µM. `COc1cc(OC)c2c(-c3cccc(-c4ccc(OC)c(OC)c4)c3)cc(=O)oc2c1`: under setting [1], the half-maximal activity concentration (AC50) stood at 0.594 µM. For the molecule `CCC(=O)NC(c1ccc(C)cc1)c1ccc2cccnc2c1O` (configuration not stated), under setting [1], the AC50 was more than 50 µM. As for `Cc1ccc(C2(C)NC(=O)N(CC(=O)Nc3nc(-c4ccccn4)cs3)C2=O)cc1` (configuration not stated), the AC50 under setting [1] was 4.23 µM. Still for that read-out and setting: in the case of `COc1ccc(CNCC(=O)Nc2ccccc2-n2cccc2)cc1` it was 6.21 µM.
